3 compounds from patent publication US20260263338A1, “COMPOSITIONS COMPRISING AMAROUCIAXANTHIN A ESTERS AND USES THEREOF” (GAT THERAPEUTICS, S.L., priority 2022, published 2026) can be followed below.

In general, solubility refers to the dissolved amount per volume that the medium holds.

Data set [1] is described as follows: Solubility in different lipid vehicle formulations (HPLC assay of the filtered sample). It is filed as physicochemical. Particulars: about 25 mg compound in 1 mL. As for the experimental part:
About 25 mg of compound was weighted into a glass vial and 1 mL of the lipophilic solvent was added to the vial containing the compound. The vial was vortexed for 1 minute followed by sonication for 30 minutes. The resulting solution was visually observed for any undissolved particles. The sonicated sample was filtered through a 0.22 μm PTFE filter and 500 μL of this filtered sample was dissolved with 25 mL of a EtOH: hexane (80:20) solution (“dilution 1”). 1 mL of “dilution 1” was dissolved with 10 mL of ACN to obtain “dilution 2”. 1 mL of “dilution 2” was filtered through a 0.22 μm PTFE filter and directly used for assay by HPLC. The concentration was calculated by extrapolation from a calibration curve. 1.00 mg of standard compound was accurately weighted (precision scale) and diluted to 100 ppm in a volumetric flask.

A short description of data set [2]: Oral kinetic assay in mice: plasma concentration of ACX after oral delivery of FCX or ACX-Ac. It is filed as in vivo, mice Hsd: ICR (CD-1). As to conditions: for AUCt, area under the concentration-time curve from 0 to the time of the last quantifiable observation, of ACX / Cmax: ACX measured in plasma after the named compound, oral (intragastric), single 10 mg/kg, sunflower oil; for AUCt, area under the concentration-time curve from 0 to the time of the last quantifiable observation, of ACX: linear-log trapezoidal rule; for Cmax: noncompartmental analysis, read-out: Cmax, maximum observed plasma concentration of ACX. As for the experimental part:
Immunocompetent mice from the strain Hsd: ICR (CD-1) (females, 6-7 weeks old from ENVIGO), were housed under sterile conditions at a constant temperature of 20-22° C. and relative humidity (45-65%) under daily cycles of light/darkness (12 hours). Sterilized water and food were available ad libitum.
ACX-Ac was dissolved at 1 mg/mL in sunflower oil and sterilized by filtration. FCX was dissolved at 2 mg/mL in sunflower oil and sterilized by filtration. Animals were weighted before the assay to determine the appropriate dispensing volume at 5 mL/kg (FCX) or 10 ml/kg (ACX-Ac). Formulations were administered once, intragastrically, at 10 mg/kg. Blood was collected at different time points, as stated in Table 1. It was extracted either through the facial vein or by intracardiac puncture (end points), on recipients containing 5 μL of 0.5 M EDTA.
Blood samples were analyzed by HPLC-MS/MS following proprietary analytical methods and the concentration of ACX in each sample was determined. A non-compartmental pharmacokinetic analysis was carried out using individual plasma concentrations versus sampling times by means of the PKPlus® software version 2.0 (Simulations Plus, Lancaster, CA 93534, USA).

Setting [3] is: DHA (fish oil), PUFA-enriched oil.

Molecules are shown by their SMILES. Converted amounts (≈) assume the structure as drawn.

Regarding `CC1=CC(=O)CC(C)(C)[C@@]1(O)CC(=O)/C(C)=C/C=C/C(C)=C/C=C/C=C(C)/C=C/C=C(\C)C=C=C1C(C)(C)C[C@H](O)C[C@@]1(C)O` [ACX, Amarouciaxanthin A], the solubility is on record as 7.2 mg/mL (≈ 11.7 mM) in data set [1] (setting [3]); 19.0 mg/mL (≈ 30.9 mM) in data set [1] (Labrafac Lipophile 1349); 15.9 mg/mL (≈ 25.9 mM) in data set [1] (Labrafac MC60); 19.9 mg/mL (≈ 32.4 mM) in data set [1] (Labrafil M 1944CS); 20.3 mg/mL (≈ 33 mM) in data set [1] (Labrafil M 2125); 22.4 mg/mL (≈ 36.4 mM) in data set [1] (Labrasol ALF). Moreover, the solubility stood at 19.9 mg/mL (≈ 32.4 mM) in data set [1] (Maisine), 16.7 mg/mL (≈ 27.2 mM) in data set [1] (Plurol Oleique) and 9.2 mg/mL (≈ 15 mM) in data set [1] (Sunflower oil).
As to `CC(=O)O[C@H]1CC(C)(C)C(=C=C/C(C)=C/C=C/C(C)=C/C=C/C=C(C)/C=C/C=C(\C)C(=O)C[C@@]2(O)C(C)=CC(=O)CC2(C)C)[C@](C)(O)C1` [ACX-Ac, Amarouciaxanthin A acetate], the “AUCt, area under the concentration-time curve from 0 to the time of the last quantifiable observation, of ACX” value in data set [2] was 80.59 µM·h. Besides, in data set [2], the Cmax stood at 9.35 µM. Moreover, in data set [2] (oral, 10 mg/kg in sunflower oil), the “administered compound detected in plasma samples” value is reported as “not detected”. The “plasma levels of ACX in comparison to those obtained after FX administration” value in data set [2] (oral, 10 mg/kg in sunflower oil, FIG. 1 and Table 3) was “substantially higher”. In addition, the solubility in data set [1] (setting [3]) is recorded as 18.3 mg/mL; in data set [1] (Labrafac Lipophile 1349) it was 21.7 mg/mL; in data set [1] (Labrafac MC60), 21.0 mg/mL; in data set [1] (Labrafil M 1944CS) it was 22.6 mg/mL; in data set [1] (Labrafil M 2125), 23.0 mg/mL; in data set [1] (Labrasol ALF), 22.4 mg/mL. For the same compound, the solubility worked out at 22.9 mg/mL in data set [1] (Maisine), 11.9 mg/mL in data set [1] (Plurol Oleique) and 19.9 mg/mL in data set [1] (Sunflower oil).
As to `CC(=O)O[C@H]1CC(C)(C)C(=C=C/C(C)=C/C=C/C(C)=C/C=C/C=C(C)/C=C/C=C(\C)C(=O)C[C@@]23O[C@]2(C)C[C@@H](O)CC3(C)C)[C@](C)(O)C1` [FCX, fucoxanthin], the “AUCt, area under the concentration-time curve from 0 to the time of the last quantifiable observation, of ACX” value in data set [2] worked out at 51.19 µM·h. Also, in data set [2], the Cmax is 2.87 µM. The “oral absorption of the administered compound” value in data set [2] (oral, oil formulation, 10 mg/kg) is reported as “negligible”. In addition, the solubility in data set [1] (setting [3]) was determined as 4.1 mg/mL (≈ 6.22 mM); in data set [1] (Labrafac Lipophile 1349), 16.9 mg/mL (≈ 25.6 mM); in data set [1] (Labrafac MC60), 20.4 mg/mL (≈ 31 mM); in data set [1] (Labrafil M 1944CS), 17.6 mg/mL (≈ 26.7 mM); in data set [1] (Labrafil M 2125), 23.0 mg/mL (≈ 34.9 mM); in data set [1] (Labrasol ALF), 22.3 mg/mL (≈ 33.8 mM). The solubility was 23.0 mg/mL (≈ 34.9 mM) in data set [1] (Maisine), 20.7 mg/mL (≈ 31.4 mM) in data set [1] (Plurol Oleique) and 5.0 mg/mL (≈ 7.59 mM) in data set [1] (Sunflower oil).
